In patent US10723741B1, “DNA polymerase IIIC inhibitors and use thereof” (Acurx Pharmaceuticals, LLC, priority 2018, dated 2020):
Converted amounts (≈) assume the structure as drawn. Like-named read-outs stand apart in the source and are kept apart here.

Columns and labels:
Format in all cases: cell-based
[1] = system: Streptococcus pneumoniae ATCC 49619; test: Broth microdilution MIC, S. pneumoniae ATCC 49619; conditions: read-out: MIC S. pneumoniae ATCC 49619
Method in brief: (§1)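 Broth microdilution in strain-specific test medium with ~5.0×10^5 cfu/ml inoculum, 1% DMSO and two-fold compound dilutions from 64 to 0.0625 μg/ml. Plates were held 20 hours at 37° C in ambient air. S. pneumoniae colonies were grown beforehand on blood agar in 5% CO2.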

[2] = system: Escherichia coli ATCC 25922; test: Broth microdilution MIC, E. coli ATCC 25922 (MHIIB w & w/o 4 mM EDTA); conditions: for MIC: Escherichia coli, read-out: MIC E. coli ATCC 25922
Method in brief: as §1

[3] = system: Enterococcus faecalis ATCC 29212; test: Broth microdilution MIC, E. faecalis ATCC 29212; conditions: read-out: MIC E. faecalis ATCC 29212
Method in brief: as §1

[4] = system: Enterococcus faecium ATCC 700221 (VRE); test: Broth microdilution MIC, E. faecium ATCC 700221 (VRE); set-up: MIC E. faecium ATCC 700221 (VRE): unit: ug/mL; conditions: for MIC: Enterococcus faecium
Method in brief: as §1

[5] = system: Staphylococcus aureus NRS384 (MRSA); test: Broth microdilution MIC, S. aureus NRS384 (MRSA); set-up: MIC NRS 384 (MRSA): unit not given here; conditions: for MIC: Staphylococcus aureus
Method in brief: as §1

[6] = system: Staphylococcus aureus ATCC 29213 (MSSA); test: Broth microdilution MIC, S. aureus ATCC 29213 (MSSA); conditions: read-out: MIC S. aureus ATCC 29213 (MSSA)
Method in brief: as §1

[7] = system: Bacillus subtilis ATCC 6633; test: Broth microdilution MIC, B. subtilis ATCC 6633; conditions: read-out: MIC B. subtilis ATCC 6633
Method in brief: as §1

[8] = ATCC49619, broth microdilution, 37° C., 20 hours
[9] = ATCC25922, without EDTA, broth microdilution, 37° C., 20 hours
[10] = with 4 mM EDTA, broth microdilution, 37° C., 20 hours
[11] = ATCC29212, broth microdilution, 37° C., 20 hours
[12] = broth microdilution, 37° C., 20 hours, read-out: MIC E. faecium ATCC 700221 (VRE)
[13] = broth microdilution, 37° C., 20 hours, read-out: MIC NRS 384 (MRSA)
[14] = broth microdilution, 37° C., 20 hours
[15] = ATCC6633, broth microdilution, 37° C., 20 hours
[16] = S. aureus NRS 384, broth microdilution, 37° C., 20 hours, read-out: MIC NRS 384 (MRSA)
[17] = 20 h, read-out: MIC E. faecium ATCC 700221 (VRE)
[18] = 20 h, read-out: MIC NRS 384 (MRSA)
[19] = broth microdilution, MHIIB, 37° C., 20 hours, read-out: MIC against E. faecium ATCC 700221 (VRE)
[20] = broth microdilution, MHIIB, 37° C., 20 hours, read-out: MIC against S. aureus NRS 384 (MRSA)

| SMILES | MIC [1, 8] [µg/mL] | MIC [2, 9] [µg/mL] | MIC E. coli ATCC 25922 + 4 mM EDTA [2, 10] [µg/mL] | MIC [3, 11] [µg/mL] | MIC [4, 12] [µg/mL] | MIC [6, 14] [µg/mL] | MIC [7, 15] [µg/mL] | MIC [5, 16] [µg/mL] | further results |
| --- | --- | --- | --- | --- | --- | --- | --- | --- | --- |
| CNC(=N)NCCn1ncc2nc(NCc3ccc(Cl)c(Cl)c3)[nH]c(=O)c21.Cl [Compound 294, 1-(2-(5-((3,4-Dichlorobenzyl)amino)-7-oxo-6,7-dihydro-1H-pyrazolo[4,3-d]pyrimidin-1-yl)ethyl)-3-methylguanidine hydrochloride] | 32 | > 64 | 64 | 64 | 64 | 32 | 16 | – | MIC [5, 13]: 32 µg/mL |
| Cl.O=c1[nH]c(NCc2ccc(Cl)c(Cl)c2)nc2cnn(CCNC3=NCCN3)c12 [Compound 295, 5-((3,4-Dichlorobenzyl)amino)-1-(2-((4,5-dihydro-1H-imidazol-2-yl)amino)ethyl)-1H-pyrazolo[4,3-d]pyrimidin-7(6H)-one hydrochloride] | 32 | > 64 | 64 | 64 | 64 | > 64 | 32 | – | MIC [5, 13]: 64 µg/mL |
| O=c1[nH]c(NCc2ccc(Cl)c(Cl)c2)nc2cnn(CCOCCOP(=O)(O)O)c12 [Compound 296, 2-(2-(5-((3,4-dichlorobenzyl)amino)-7-oxo-6,7-dihydro-1H-pyrazolo[4,3-d]pyrimidin-1-yl)ethoxy)ethyl dihydrogen phosphate] | 8 | > 64 | >64 | > 64 | 64 | > 64 | 32 | > 64 | – |
| COP(=O)(OC)OCCOCCn1ncc2nc(NCc3ccc(Cl)c(Cl)c3)[nH]c(=O)c21 [Compound 297, 2-(2-(5-((3,4-dichlorobenzyl)amino)-7-oxo-6,7-dihydro-1H-pyrazolo[4,3-d]pyrimidin-1-yl)ethoxy)ethyl dimethyl phosphate] | – | – | >64 | – | – | – | – | – | MIC ([1]; ATCC49619, 20 h): 8 µg/mL; MIC ([2]; ATCC25922, 20 h): > 64 µg/mL; MIC ([3]; ATCC29212, 20 h): 16 µg/mL; MIC [4, 17]: 8 µg/mL; MIC [5, 18]: 32 µg/mL; MIC ([6]; 20 h): 16 µg/mL; MIC ([7]; ATCC6633, 20 h): 8 µg/mL |
| COP(=O)(O)OCCOCCn1ncc2nc(NCc3ccc(Cl)c(Cl)c3)[nH]c(=O)c21 [Compound 298, 2-(2-(5-((3,4-Dichlorobenzyl)amino)-7-oxo-6,7-dihydro-1H-pyrazolo[4,3-d]pyrimidin-1-yl)ethoxy)ethyl methyl hydrogen phosphate] | – | – | >64 | – | – | – | – | – | MIC ([1]; ATCC49619, 20 h): > 64 µg/mL; MIC ([2]; ATCC25922, 20 h): > 64 µg/mL; MIC ([3]; ATCC29212, 20 h): > 64 µg/mL; MIC [4, 17]: > 64 µg/mL; MIC [5, 18]: > 64 µg/mL; MIC ([6]; 20 h): > 64 µg/mL; MIC ([7]; ATCC6633, 20 h): > 64 µg/mL |
| N.N.O=c1[nH]c(NCc2ccc(Cl)c(Cl)c2)nc2cnn(CCOCCOCOP(=O)(O)O)c12 [Compound 299, ammonium (2-(2-(5-((3,4-dichlorobenzyl)amino)-7-oxo-6,7-dihydro-1H-pyrazolo[4,3-d]pyrimidin-1-yl)ethoxy)ethoxy)methyl phosphate] | 16 | > 64 | – | > 64 | 16 | > 64 | 64 | > 64 | MIC E. coli ATCC 25922 + 4 mM EDTA ([2]; ATCC25922, 20 h): >64 µg/mL |
| O=c1[nH]c(NCc2ccc(Cl)c(Cl)c2)nc2c(F)nn(Cc3cocn3)c12 [Compound 306, 5-((3,4-Dichlorobenzyl)amino)-3-fluoro-1-(oxazol-4-ylmethyl)-1H-pyrazolo[4,3-d]pyrimidin-7(6H)-one] | 4 (≈ 9.77 µM) | > 64 | >64 | 2 (≈ 4.89 µM) | 1 (≈ 2.44 µM) | 2 (≈ 4.89 µM) | 0.5 (≈ 1.22 µM) | 2 (≈ 4.89 µM) | – |
| O=c1[nH]c(NCc2ccc(Cl)c(Cl)c2)nc2c(Cl)nn(Cc3cocn3)c12 [Compound 307, 3-Chloro-5-((3,4-dichlorobenzyl)amino)-1-(oxazol-4-ylmethyl)-1H-pyrazolo[4,3-d]pyrimidin-7(6H)-one] | 4 (≈ 9.4 µM) | > 64 | >64 | 2 (≈ 4.7 µM) | 1 (≈ 2.35 µM) | 1 (≈ 2.35 µM) | 0.5 (≈ 1.17 µM) | 1 (≈ 2.35 µM) | MIC [4, 19]: ≤ 1 µg/mL; MIC [5, 20]: ≤ 1 µg/mL |
| COCCn1nc(F)c2nc(NCc3ccc(F)c(F)c3)[nH]c(=O)c21 [Compound 308, 5-((3,4-Difluorobenzyl)amino)-3-fluoro-1-(2-methoxyethyl)-1H-pyrazolo[4,3-d]pyrimidin-7(6H)-one] | 4 (≈ 11.3 µM) | > 64 | >64 | 8 (≈ 22.6 µM) | 4 (≈ 11.3 µM) | 4 (≈ 11.3 µM) | 2 (≈ 5.66 µM) | 4 (≈ 11.3 µM) | – |
| O=c1[nH]c(NCc2ccc(F)c(F)c2)nc2c(Cl)nn(CCOCCO)c12 [Compound 309, 3-Chloro-5-[(3,4-difluorophenyl)methylamino]-1-[2-(2-hydroxyethoxy)ethyl]-6H-pyrazolo[4,3-d]pyrimidin-7-one] | 8 (≈ 20 µM) | > 64 | >64 | 32 (≈ 80 µM) | 16 (≈ 40 µM) | 16 (≈ 40 µM) | 8 (≈ 20 µM) | 16 (≈ 40 µM) | – |

More lines, main results first:

| MIC [1, 8] [µg/mL] | MIC [2, 9] [µg/mL] | MIC E. coli ATCC 25922 + 4 mM EDTA [2, 10] [µg/mL] | MIC [3, 11] [µg/mL] | MIC [4, 12] [µg/mL] | MIC [6, 14] [µg/mL] | MIC [7, 15] [µg/mL] | MIC [5, 16] [µg/mL] | SMILES | further results |
| --- | --- | --- | --- | --- | --- | --- | --- | --- | --- |
| 4 (≈ 8.73 µM) | > 64 | >64 | 8 (≈ 17.5 µM) | – | 4 (≈ 8.73 µM) | 1 (≈ 2.18 µM) | – | CSCOCCOCCn1ncc2nc(NCc3ccc(Cl)c(Cl)c3)[nH]c(=O)c21 [Compound 300, 5-[(3,4-dichlorophenyl)methylamino]-1-[2-[2-(methylsulfanylmethoxy)ethoxy]ethyl]-6H-pyrazolo[4,3-d]pyrimidin-7-one] | MIC E. faecium ATCC 700221 (VRE) [4, 14]: 2/4; MIC NRS 384 (MRSA) ([5]; S. aureus NRS 384, broth microdilution, 37° C., 20 hours): 4/4 |
| 4 (≈ 10.4 µM) | > 64 | >64 | 8 (≈ 20.9 µM) | 4 (≈ 10.4 µM) | 8 (≈ 20.9 µM) | 8 (≈ 20.9 µM) | 4 (≈ 10.4 µM) | O=c1[nH]c(NCc2ccc(F)c(F)c2)nc2c(F)nn(CCOCCO)c12 [Compound 301, 5-((3,4-difluorobenzyl)amino)-3-fluoro-1-(2-(2-hydroxyethoxy)ethyl)-1H-pyrazolo[4,3-d]pyrimidin-7(6H)-one] | – |
| 2 (≈ 4.8 µM) | > 64 | >64 | 2 (≈ 4.8 µM) | 1 (≈ 2.4 µM) | 2 (≈ 4.8 µM) | 0.5 (≈ 1.2 µM) | 2 (≈ 4.8 µM) | O=c1[nH]c(NCc2ccc(Cl)c(Cl)c2)nc2c(F)nn(CCOCCO)c12 [Compound 302, 5-[(3,4-Dichlorophenyl)methylamino]-3-fluoro-1-[2-(2-hydroxyethoxy)ethyl]-6H-pyrazolo[4,3-d]pyrimidin-7-one] | – |
| 2 (≈ 4.62 µM) | > 64 | >64 | 2 (≈ 4.62 µM) | 1 (≈ 2.31 µM) | 2 (≈ 4.62 µM) | 0.5 (≈ 1.16 µM) | 2 (≈ 4.62 µM) | O=c1[nH]c(NCc2ccc(Cl)c(Cl)c2)nc2c(Cl)nn(CCOCCO)c12 [Compound 303, 3-Chloro-5-[(3,4-dichlorophenyl)methylamino]-1-[2-(2-hydroxyethoxy)ethyl]-6H-pyrazolo[4,3-d]pyrimidin-7-one] | – |
| 2 (≈ 4.97 µM) | > 64 | >64 | 2 (≈ 4.97 µM) | 0.5 (≈ 1.24 µM) | 1 (≈ 2.48 µM) | 0.5 (≈ 1.24 µM) | 1 (≈ 2.48 µM) | COCCn1nc(Cl)c2nc(NCc3ccc(Cl)c(Cl)c3)[nH]c(=O)c21 [Compound 304, 3-Chloro-5-((3,4-dichlorobenzyl)amino)-1-(2-methoxyethyl)-1H-pyrazolo[4,3-d]pyrimidin-7(6H)-one] | MIC [4, 19]: ≤ 1 µg/mL; MIC [5, 20]: ≤ 1 µg/mL |
| 4 (≈ 10.4 µM) | > 64 | >64 | 2 (≈ 5.18 µM) | 1 (≈ 2.59 µM) | 1 (≈ 2.59 µM) | 0.5 (≈ 1.29 µM) | 1 (≈ 2.59 µM) | COCCn1nc(F)c2nc(NCc3ccc(Cl)c(Cl)c3)[nH]c(=O)c21 [Compound 305, 5-((3,4-Dichlorobenzyl)amino)-3-fluoro-1-(2-methoxyethyl)-1H-pyrazolo[4,3-d]pyrimidin-7(6H)-one] | MIC [4, 19]: ≤ 1 µg/mL; MIC [5, 20]: ≤ 1 µg/mL |
